Earlier results on one compound are cited in paper PMC4619705 (PLoS ONE, 2015).

This data set has as its target T1, α2β3γ2L GABAARs (Homo sapiens, UniProt P18507+P28472+P47869).
T1 construct: expressed in transfected cells; host or cells: Xenopus laevis oocytes injected with capped mRNA, α2:β3:γ2L 3:1:3
Details: method as in PMID 21797842. Particulars: α2β3γ2L 1:1:10 injection ratio; cited from earlier work.

Structures are written as SMILES.

T1 sequence (P47869 29-451): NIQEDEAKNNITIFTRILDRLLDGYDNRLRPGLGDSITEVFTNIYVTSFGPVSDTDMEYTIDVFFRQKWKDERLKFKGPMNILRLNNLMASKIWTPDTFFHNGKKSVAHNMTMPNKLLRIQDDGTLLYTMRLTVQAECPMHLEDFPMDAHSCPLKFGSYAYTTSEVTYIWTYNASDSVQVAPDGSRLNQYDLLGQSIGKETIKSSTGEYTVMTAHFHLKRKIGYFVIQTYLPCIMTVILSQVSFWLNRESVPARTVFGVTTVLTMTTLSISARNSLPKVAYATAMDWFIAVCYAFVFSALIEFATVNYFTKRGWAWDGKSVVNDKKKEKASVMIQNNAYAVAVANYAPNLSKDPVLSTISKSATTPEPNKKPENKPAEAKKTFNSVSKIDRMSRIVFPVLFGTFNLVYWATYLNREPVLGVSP
T1 sequence (P28472 26-473): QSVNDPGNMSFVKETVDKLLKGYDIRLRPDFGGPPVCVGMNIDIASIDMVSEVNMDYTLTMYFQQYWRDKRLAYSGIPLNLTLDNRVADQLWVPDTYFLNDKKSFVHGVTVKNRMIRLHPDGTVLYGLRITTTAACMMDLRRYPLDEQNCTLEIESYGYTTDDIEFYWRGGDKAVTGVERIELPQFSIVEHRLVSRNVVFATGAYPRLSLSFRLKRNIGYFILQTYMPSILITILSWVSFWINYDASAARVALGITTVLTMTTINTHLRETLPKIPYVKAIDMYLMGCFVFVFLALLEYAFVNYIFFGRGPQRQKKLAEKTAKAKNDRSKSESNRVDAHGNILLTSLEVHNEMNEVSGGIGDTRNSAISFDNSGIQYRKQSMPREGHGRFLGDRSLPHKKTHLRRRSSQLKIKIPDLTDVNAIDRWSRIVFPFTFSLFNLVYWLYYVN
T1 sequence (P18507 40-475): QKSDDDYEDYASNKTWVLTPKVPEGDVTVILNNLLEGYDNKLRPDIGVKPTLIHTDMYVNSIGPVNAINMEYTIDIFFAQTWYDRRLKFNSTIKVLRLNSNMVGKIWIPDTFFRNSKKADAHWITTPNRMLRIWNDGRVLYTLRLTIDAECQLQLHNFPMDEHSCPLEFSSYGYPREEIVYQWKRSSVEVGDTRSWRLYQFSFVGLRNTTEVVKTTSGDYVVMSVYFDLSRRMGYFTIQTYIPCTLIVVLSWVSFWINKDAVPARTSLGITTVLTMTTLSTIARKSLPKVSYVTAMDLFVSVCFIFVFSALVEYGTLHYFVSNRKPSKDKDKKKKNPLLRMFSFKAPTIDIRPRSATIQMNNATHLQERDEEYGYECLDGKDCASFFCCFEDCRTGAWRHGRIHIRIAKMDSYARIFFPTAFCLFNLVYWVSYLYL

Take `COc1ccccc1-c1cc(=O)c2cc(C)ccc2o1` [2’MeO6MF, 2’-methoxy-6-methylflavone]: the “Agonist efficacy (direct activation)” value is “full agonist”.
